“And” between values parts separate entries of the source, which are not always exact repeats. Equal entries are not always repeated.
Assays:
Diaporthe medusae = assay: microbe, parasite or virus in culture; type: cell-based
melon powdery mildew = assay: Field efficacy trial of emulsifier concentrate 1, melon powdery mildew; type: in vivo
Description: (§1) To a beaker (1000 mL), 50 g (100% basis) of the compound of Formula (I), 150 g of DMF, and 50 g of acetone were added and stirred for dissolution. To the solution, 25 g of pesticide emulsifier No. 500 and 50 g of Tween 80, 20 g of epoxidized soybean oil, and […] of toluene were added. Thus, the emulsifier concentrate 1 having 5 wt. % of the compound of Formula (I) was obtained and further packed.
(§2) On the basis of indoor activity evaluation, field efficacy trials of the compound of Formula (I) on cucumber downy mildew, cucumber powdery mildew, and melon powdery mildew were conducted.

cucumber downy mildew = assay: Field efficacy trial of emulsifier concentrate 1, cucumber downy mildew; type: in vivo
Description: as §1, §2

Fusarium moniliforme = assay: microbe, parasite or virus in culture; type: cell-based; conditions: Fusarium verticillioides, read-out: Inhibition rate (%)
[1] = system: Pseudoperonospora cubensis; assay: Fungicidal activity on potted cucumber, downy mildew; type: in vivo
Description: (§3) 1. Fungicidal Activity Assay on Potted Plants at Room Temperature
(§4) Take cucumber downy mildew and powdery mildew as examples, the assay were carried out as follows:
1) Pseudoperonospora cubensis: Pathogen of Cucumber Downy Mildew
Two cucumber seedlings (the growing point had been removed) having the same growth status and in the true leaf stage were collected, sprayed with the compound of Formula (I), and dried naturally for 24 hrs for inoculation. Fresh cucumber leaves infected by downy mildew were collected, and sporangium on the back was rinsed with distilled water (about 10° C.) dipped with a brush. The obtained sporangium was prepared into a suspension (2-3×10^5 cells/mL). The suspension was sprayed uniformly with an inoculation sprayer (0.1 MPa) to the naturally-dried cucumber seedlings. Subsequently, the seedlings were cultured in an artificial climate chamber. The relative humidity was maintained at 100%, with temperature of between 15 and 20° C. 24 hrs later, the relative humidity was maintained at 90%, with temperature of between 15 and 24° C. 5 days later, compared with the control, the disease of the cucumber seedlings was graded. Based on the resultant disease index, the efficacy was calculated.
(§5) The grading standard follows “Guidelines on efficacy evaluation of pesticides”, and the efficacy is calculated on the basis of the disease index.

Sphaerotheca uliginea = assay: Fungicidal activity on potted cucumber, powdery mildew; type: in vivo
Description: as §3, §4
2) Sphaerotheca uliginea: Pathogen of Cucumber Powdery Mildew
A cucumber seedling having uniform growth status and in the true leaf stage was collected, sprayed with the compound of Formula (I), and dried in the shade for 24 hrs. Fresh spore was collected from cucumber leaves infected by Sphaerotheca uliginea, filtered with a double-layer gauze, and prepared into a suspension (1.0×10^5 cells/mL). The suspension was sprayed to the dried cucumber seedling. Subsequently, the inoculated seedling was dried naturally and cultured under light in a thermostatic chamber (21-23° C.). 7-8 days later, compared with the blank control, the disease of the cucumber seedlings was graded. Based on the resultant disease index, the efficacy was calculated.
as §5

[2] = system: Rice sheath blight (strain WK-1); assay: In vivo micro-screening assay
Description: In Vivo Micro-Screening Assay
To further study the fungicidal spectrum of the compound of Formula (I), indoor in vivo micro-screening assay were carried out on cucumber gray mold, cucumber scab, cucumber sclerotinia rot, cucumber brown spot, pepper phytophthora blight, and rice sheath blight.
Cucumber scab strain: HX; cucumber brown spot strain: SDHGHB060509; cucumber sclerotinia rot strain: HGJH; pepper phytophthora blight strain: NSGP; and rice sheath blight strain: WK-1.
Medicament to be tested and medicament of control groups were prepared as needed in a sunny morning. Cucumber gray mold, cucumber scab, cucumber brown spot, cucumber sclerotinia rot, and rice sheath blight were medicated by spray, and after air dry, pathogens of cucumber scab and of cucumber brown spot were inoculated through spraying spore suspension respectively, pathogens of cucumber gray mold, of cucumber sclerotinia rot, and of rice sheath blight were inoculated through lawn foliage. Pepper phytophthora blight was medicated and inoculated by root-irrigation. Subsequently, all seedlings were cultured in wet environment.
After the disease of control groups were serious, spot area, disease index, and the diseased seedling rate were investigated to calculate the efficacy. Cucumber scab, cucumber brown spot, and pepper phytophthora blight were investigated by grading method. The spot extension area of cucumber gray mold and of rice sheath blight was investigated. The diseased seedling rate of cucumber sclerotinia rot was investigated. Disease index=Σ(amount of infected diseased leaves in a grade×relative value of the grade)×100/(total amount of leaves×9); Diseased seedling rate (%)=(total amount of seedlings−amount of diseased seedlings)/total amount of seedlings×100% Prevention and treatment effect (%)=(disease of control group−disease of experiment group)/disease of control group×100%

Botrytis cinerea = assay: microbe, parasite or virus in culture; type: cell-based; conditions: read-out: Inhibition rate (%)
Phytophthora infestans = assay: microbe, parasite or virus in culture; type: cell-based; conditions: read-out: Inhibition rate (%)
[3] = 12.5 mg/L, 7th day after first administration
[4] = 12.5 mg/L, 7th day after second administration
[5] = 12.5 mg/L, 14th day after second administration
[6] = 25 mg/L, 7th day after first administration
[7] = 25 mg/L, 7th day after second administration
[8] = 25 mg/L, 14th day after second administration
[9] = 50 mg/L, 7th day after first administration
[10] = 50 mg/L, 7th day after second administration
[11] = 50 mg/L, 14th day after second administration
[12] = 100 mg/L, 7th day after first administration
[13] = 100 mg/L, 7th day after second administration
[14] = 100 mg/L, 14th day after second administration
[15] = 25 mg/L, 5th day after third administration, Average
[16] = 25 mg/L, 5th day after third administration, No. 1-3
[17] = 25 mg/L, 9th day after third administration, Average
[18] = 25 mg/L, 9th day after third administration, No. 1-3
[19] = 25 mg/L, 12th day after second administration, Average
[20] = 25 mg/L, 12th day after second administration, No. 1-3
[21] = 50 mg/L, 5th day after third administration, Average
[22] = 50 mg/L, 5th day after third administration, No. 1-3
[23] = 50 mg/L, 9th day after third administration, Average
[24] = 50 mg/L, 9th day after third administration, No. 1-3
[25] = 50 mg/L, 12th day after second administration, Average
[26] = 50 mg/L, 12th day after second administration, No. 1-3
[27] = 100 mg/L, 5th day after third administration, Average
[28] = 100 mg/L, 5th day after third administration, No. 1-3
[29] = 100 mg/L, 9th day after third administration, Average
[30] = 100 mg/L, 9th day after third administration, No. 1-3
[31] = 100 mg/L, 12th day after second administration, Average
[32] = 3.125 mg/L, secondary screening
[33] = Pseudoperonospora cubensis, secondary screening

Compound: CO/C=C(/C(=O)OC)c1ccccc1CSc1nc2cc(OC)ccc2s1 [Compound of Formula (I), (E)-methyl 3-methoxy-2-(2-((5-methoxy-benzothiazol-2-ylthio)methyl)phenyl)acrylate]
- in vitro effect (Diaporthe medusae): particularly effective
- inhibition at 0.3 µg/mL (Diaporthe medusae; Diaporthe, 0.3 mg/L, read-out: Inhibition rate (%)): 55.3%
- inhibition at 3 µg/mL (Diaporthe medusae; Diaporthe, 3 mg/L, read-out: Inhibition rate (%)): 80.1%
- inhibition at 30 µg/mL (Diaporthe medusae; Diaporthe, 30 mg/L, read-out: Inhibition rate (%)): 87.2%
- Disease index (melon powdery mildew; [3]): 8.80
- Efficacy (%) (melon powdery mildew; [3]): 27.16%
- Disease index (melon powdery mildew; [4]): 13.44
- Efficacy (%) (melon powdery mildew; [4]): 61.65%
- Disease index (melon powdery mildew; [5]): 40.33
- Efficacy (%) (melon powdery mildew; [5]): 29.55%
- Disease index (melon powdery mildew; [6]): 7.11
- Efficacy (%) (melon powdery mildew; [6]): 34.38%
- Disease index (melon powdery mildew; [7]): 13.63
- Efficacy (%) (melon powdery mildew; [7]): 67.15%
- Disease index (melon powdery mildew; [8]): 31.50
- Efficacy (%) (melon powdery mildew; [8]): 47.00%
- Disease index (melon powdery mildew; [9]): 7.92
- Efficacy (%) (melon powdery mildew; [9]): 35.77%
- Disease index (melon powdery mildew; [10]): 10.88
- Efficacy (%) (melon powdery mildew; [10]): 75.54%
- Disease index (melon powdery mildew; [11]): 30.42
- Efficacy (%) (melon powdery mildew; [11]): 54.57%
- Disease index (melon powdery mildew; [12]): 6.29
- Efficacy (%) (melon powdery mildew; [12]): 39.15%
- Disease index (melon powdery mildew; [13]): 4.52
- Efficacy (%) (melon powdery mildew; [13]): 86.22%
- Disease index (melon powdery mildew; [14]): 19.45
- Efficacy (%) (melon powdery mildew; [14]): 63.47%
- Disease index (cucumber downy mildew; [15]): 4.75
- Efficacy (%) (cucumber downy mildew; [15]): 58.99%
- Disease index (cucumber downy mildew; [16]): 4.86 and 4.51
- Efficacy (%) (cucumber downy mildew; [16]): 57.99% and 60.99%
- Disease index (cucumber downy mildew; [17]): 11.50
- Efficacy (%) (cucumber downy mildew; [17]): 68.89%
- Disease index (cucumber downy mildew; [18]): 12.04 and 10.42
- Efficacy (%) (cucumber downy mildew; [18]): 67.43% and 71.82%
- Disease index (cucumber downy mildew; [19]): 1.85
- Efficacy (%) (cucumber downy mildew; [19]): 69.24%
- Disease index (cucumber downy mildew; [20]): 1.74 and 2.08
- Efficacy (%) (cucumber downy mildew; [20]): 71.16% and 65.39%
- Disease index (cucumber downy mildew; [21]): 3.94
- Efficacy (%) (cucumber downy mildew; [21]): 65.99%
- Disease index (cucumber downy mildew; [22]): 3.47 and 4.51 and 3.82
- Efficacy (%) (cucumber downy mildew; [22]): 69.99% and 60.99% and 66.99%
- Disease index (cucumber downy mildew; [23]): 8.72
- Efficacy (%) (cucumber downy mildew; [23]): 76.41%
- Disease index (cucumber downy mildew; [24]): 10.65 and 7.18 and 8.33
- Efficacy (%) (cucumber downy mildew; [24]): 71.19% and 80.58% and 77.45%
- Disease index (cucumber downy mildew; [25]): 1.39
- Efficacy (%) (cucumber downy mildew; [25]): 76.93%
- Disease index (cucumber downy mildew; [26]): 1.04 and 1.74 and 1.39
- Efficacy (%) (cucumber downy mildew; [26]): 82.70% and 71.16% and 76.93%
- Disease index (cucumber downy mildew; [27]): 2.55
- Efficacy (%) (cucumber downy mildew; [27]): 77.99%
- Disease index (cucumber downy mildew; [28]): 2.08 and 2.43 and 3.13
- Efficacy (%) (cucumber downy mildew; [28]): 81.99% and 78.99% and 72.99%
- Disease index (cucumber downy mildew; [29]): 7.10
- Efficacy (%) (cucumber downy mildew; [29]): 80.79%
- Disease index (cucumber downy mildew; [30]): 8.10 and 7.18 and 6.02
- Efficacy (%) (cucumber downy mildew; [30]): 78.08% and 80.58% and 83.72%
- Disease index (cucumber downy mildew; [31]): 1.02
- Efficacy (%) (cucumber downy mildew; [31]): 83.04%
- Efficacy (%) (cucumber downy mildew; 100 mg/L, 12th day after second administration, No. 1-3): 83.71% and 76.93% and 88.46%
- inhibition at 0.3 µg/mL (Fusarium moniliforme; 0.3 mg/L): 9.6%
- inhibition at 3 µg/mL (Fusarium moniliforme; 3 mg/L): 30.8%
- inhibition at 30 µg/mL (Fusarium moniliforme; 30 mg/L): 43.6%
- Efficacy (%) [1, 32]: 69.92%
- Efficacy (%) ([1]; 6.25 mg/L, secondary screening): 82.89%
- Efficacy (%) ([1]; 12.5 mg/L, Table 1): 87.34%
- Efficacy (%) ([1]; 12.5 mg/L, secondary screening): 91.50%
- Efficacy (%) ([1]; 25 mg/L, Table 1): 94.16%
- Efficacy (%) ([1]; 25 mg/L, secondary screening): 98.15%
- Efficacy (%) ([1]; 50 mg/L, Table 1): 100%
- Efficacy (%) ([1]; 50 mg/L, secondary screening): 100%
- Efficacy (%) ([1]; 100 mg/L, Table 1): 100%
- Efficacy (%) ([1]; 200 mg/L, Table 1): 100%
- EC50 [1, 33]: 1.52 µg/mL
- EC90 [1, 33]: 9.76 µg/mL
- preventive effect ([1]; downy mildew): good preventive effect
- Efficacy (%) (Sphaerotheca uliginea; [32]): 85.24%
- Efficacy (%) (Sphaerotheca uliginea; 6.25 mg/L, secondary screening): 97.22%
- Efficacy (%) (Sphaerotheca uliginea; 12.5 mg/L, Table 1): 97.22%
- Efficacy (%) (Sphaerotheca uliginea; 12.5 mg/L, secondary screening): 98.50%
- Efficacy (%) (Sphaerotheca uliginea; 25 mg/L, Table 1): 100%
- Efficacy (%) (Sphaerotheca uliginea; 25 mg/L, secondary screening): 100%
- Efficacy (%) (Sphaerotheca uliginea; 50 mg/L, Table 1): 100%
- Efficacy (%) (Sphaerotheca uliginea; 50 mg/L, secondary screening): 100%
- Efficacy (%) (Sphaerotheca uliginea; 100 mg/L, Table 1): 100%
- Efficacy (%) (Sphaerotheca uliginea; 200 mg/L, Table 1): 100%
- preventive effect (Sphaerotheca uliginea; powdery mildew): good preventive effect
- EC50 (Sphaerotheca uliginea; secondary screening): 0.96 µg/mL
- EC90 (Sphaerotheca uliginea; secondary screening): 3.87 µg/mL
- prevention and treatment effect [2]: good prevention and treatment effect
- Disease index ([2]; 100 mg/L): 59.96
- Efficacy (%) ([2]; 100 mg/L): 61.67%
- Disease index ([2]; 500 mg/L): 46.87
- Efficacy (%) ([2]; 500 mg/L): 70.04%
- inhibition at 0.3 µg/mL (Botrytis cinerea; 0.3 mg/L): 42.3%
- inhibition at 3 µg/mL (Botrytis cinerea; 3 mg/L): 42.7%
- inhibition at 30 µg/mL (Botrytis cinerea; 30 mg/L): 54.9%
- inhibition at 0.3 µg/mL (Phytophthora infestans): 15.3%
- inhibition at 3 µg/mL (Phytophthora infestans): 33.7%
- inhibition at 30 µg/mL (Phytophthora infestans): 38%

Reference: patent US9422254B2, “Methoxyacrylate-based fungicide and methods for preparing and using the same” (priority 2008, dated 2016)
